According to ChEMBL document CHEMBL3991601, “The target landscape of clinical kinase drugs” (Science, 2017):
Counter-ions that a name gives are not always drawn. Activity calls are given as the source filed them. For most assays here, no stated cut-off is given here; in the data, actives have a measured Kd and inactives only a lower limit.

Key:
[1] = biological target: T1, Serine/threonine-protein kinase Nek3 (Homo sapiens, UniProt P51956)
T1 sequence (P51956 whole entry): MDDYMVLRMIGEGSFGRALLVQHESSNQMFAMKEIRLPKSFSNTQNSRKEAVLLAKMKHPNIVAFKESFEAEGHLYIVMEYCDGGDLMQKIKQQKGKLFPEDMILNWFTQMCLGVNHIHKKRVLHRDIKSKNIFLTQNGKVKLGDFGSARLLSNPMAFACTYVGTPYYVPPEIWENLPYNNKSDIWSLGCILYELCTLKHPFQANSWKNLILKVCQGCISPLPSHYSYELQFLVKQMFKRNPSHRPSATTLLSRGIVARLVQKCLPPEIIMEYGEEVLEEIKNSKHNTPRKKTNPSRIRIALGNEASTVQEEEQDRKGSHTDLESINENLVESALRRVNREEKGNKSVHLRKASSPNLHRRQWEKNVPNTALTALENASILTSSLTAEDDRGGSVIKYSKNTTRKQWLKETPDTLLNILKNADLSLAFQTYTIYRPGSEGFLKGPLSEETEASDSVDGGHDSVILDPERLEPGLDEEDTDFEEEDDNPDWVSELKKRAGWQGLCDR

[2] = biological target: Tyrosine-protein kinase Lyn (Homo sapiens, UniProt P07948)
Sequence of Tyrosine-protein kinase Lyn (P07948 whole entry): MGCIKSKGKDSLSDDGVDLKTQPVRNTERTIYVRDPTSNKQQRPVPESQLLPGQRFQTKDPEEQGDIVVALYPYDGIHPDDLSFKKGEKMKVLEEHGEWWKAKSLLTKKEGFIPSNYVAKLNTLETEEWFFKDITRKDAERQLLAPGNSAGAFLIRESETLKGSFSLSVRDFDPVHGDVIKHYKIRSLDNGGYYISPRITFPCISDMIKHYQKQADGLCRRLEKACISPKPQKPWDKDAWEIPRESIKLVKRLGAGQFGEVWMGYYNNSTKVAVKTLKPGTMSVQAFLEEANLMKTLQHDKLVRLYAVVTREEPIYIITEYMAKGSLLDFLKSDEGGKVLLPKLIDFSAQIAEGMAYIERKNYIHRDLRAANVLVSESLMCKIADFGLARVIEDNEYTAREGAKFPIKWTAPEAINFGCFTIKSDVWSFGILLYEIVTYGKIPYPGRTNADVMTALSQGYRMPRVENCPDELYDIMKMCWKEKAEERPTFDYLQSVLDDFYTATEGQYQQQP

[3] = biological target: Epidermal growth factor receptor (Homo sapiens, UniProt P00533)
Sequence of Epidermal growth factor receptor (P00533 whole entry): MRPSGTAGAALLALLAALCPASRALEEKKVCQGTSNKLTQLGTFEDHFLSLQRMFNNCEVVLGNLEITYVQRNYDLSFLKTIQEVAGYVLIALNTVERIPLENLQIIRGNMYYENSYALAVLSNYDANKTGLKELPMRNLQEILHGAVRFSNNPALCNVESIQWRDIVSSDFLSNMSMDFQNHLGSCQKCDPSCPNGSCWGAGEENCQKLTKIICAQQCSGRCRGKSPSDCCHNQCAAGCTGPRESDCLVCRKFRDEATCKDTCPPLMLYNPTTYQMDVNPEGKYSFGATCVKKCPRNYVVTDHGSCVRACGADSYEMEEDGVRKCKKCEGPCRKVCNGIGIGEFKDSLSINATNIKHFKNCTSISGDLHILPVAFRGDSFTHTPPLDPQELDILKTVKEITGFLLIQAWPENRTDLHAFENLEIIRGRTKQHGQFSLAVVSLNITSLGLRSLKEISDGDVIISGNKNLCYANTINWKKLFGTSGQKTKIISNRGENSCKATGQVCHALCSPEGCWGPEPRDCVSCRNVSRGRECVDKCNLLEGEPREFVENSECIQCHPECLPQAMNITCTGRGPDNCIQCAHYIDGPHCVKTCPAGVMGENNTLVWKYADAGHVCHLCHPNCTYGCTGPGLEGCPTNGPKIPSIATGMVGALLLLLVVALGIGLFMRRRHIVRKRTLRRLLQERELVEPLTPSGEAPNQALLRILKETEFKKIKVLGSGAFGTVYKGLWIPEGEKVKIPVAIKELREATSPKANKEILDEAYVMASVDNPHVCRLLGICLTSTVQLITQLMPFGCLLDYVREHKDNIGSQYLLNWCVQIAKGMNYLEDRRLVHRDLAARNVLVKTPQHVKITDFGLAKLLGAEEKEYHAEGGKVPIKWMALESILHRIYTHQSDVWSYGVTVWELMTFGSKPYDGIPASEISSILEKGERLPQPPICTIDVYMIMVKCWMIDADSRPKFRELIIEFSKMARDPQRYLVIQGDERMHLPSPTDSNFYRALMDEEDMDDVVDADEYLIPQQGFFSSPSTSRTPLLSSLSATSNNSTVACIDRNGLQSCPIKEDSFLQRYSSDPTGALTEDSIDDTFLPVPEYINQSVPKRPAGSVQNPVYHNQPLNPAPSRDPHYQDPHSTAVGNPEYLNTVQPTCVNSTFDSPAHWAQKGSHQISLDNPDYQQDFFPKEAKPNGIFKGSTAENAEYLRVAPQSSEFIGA

Activin receptor type-1 = biological target: T2, Activin receptor type-1 (Homo sapiens, UniProt Q04771)
T2 sequence (Q04771 whole entry): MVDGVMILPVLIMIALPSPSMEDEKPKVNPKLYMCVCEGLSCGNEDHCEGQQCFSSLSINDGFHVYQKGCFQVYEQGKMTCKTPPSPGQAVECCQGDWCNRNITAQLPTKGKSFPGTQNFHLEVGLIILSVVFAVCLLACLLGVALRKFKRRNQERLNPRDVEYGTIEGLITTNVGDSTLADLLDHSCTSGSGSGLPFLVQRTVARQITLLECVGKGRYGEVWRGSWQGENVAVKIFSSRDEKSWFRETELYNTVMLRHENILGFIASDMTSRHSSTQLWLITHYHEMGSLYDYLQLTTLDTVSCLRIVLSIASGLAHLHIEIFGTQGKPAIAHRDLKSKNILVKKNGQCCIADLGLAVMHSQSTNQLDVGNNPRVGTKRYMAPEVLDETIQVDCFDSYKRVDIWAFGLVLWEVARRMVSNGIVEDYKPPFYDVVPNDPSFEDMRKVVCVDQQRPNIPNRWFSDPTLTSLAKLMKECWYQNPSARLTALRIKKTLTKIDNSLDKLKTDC

[4] = biological target: Serine/threonine-protein kinase MRCK beta (Homo sapiens, UniProt Q9Y5S2)
[5] = biological target: T3, Serine/threonine-protein kinase PLK4 (Homo sapiens, UniProt O00444)
T3 sequence (O00444 whole entry): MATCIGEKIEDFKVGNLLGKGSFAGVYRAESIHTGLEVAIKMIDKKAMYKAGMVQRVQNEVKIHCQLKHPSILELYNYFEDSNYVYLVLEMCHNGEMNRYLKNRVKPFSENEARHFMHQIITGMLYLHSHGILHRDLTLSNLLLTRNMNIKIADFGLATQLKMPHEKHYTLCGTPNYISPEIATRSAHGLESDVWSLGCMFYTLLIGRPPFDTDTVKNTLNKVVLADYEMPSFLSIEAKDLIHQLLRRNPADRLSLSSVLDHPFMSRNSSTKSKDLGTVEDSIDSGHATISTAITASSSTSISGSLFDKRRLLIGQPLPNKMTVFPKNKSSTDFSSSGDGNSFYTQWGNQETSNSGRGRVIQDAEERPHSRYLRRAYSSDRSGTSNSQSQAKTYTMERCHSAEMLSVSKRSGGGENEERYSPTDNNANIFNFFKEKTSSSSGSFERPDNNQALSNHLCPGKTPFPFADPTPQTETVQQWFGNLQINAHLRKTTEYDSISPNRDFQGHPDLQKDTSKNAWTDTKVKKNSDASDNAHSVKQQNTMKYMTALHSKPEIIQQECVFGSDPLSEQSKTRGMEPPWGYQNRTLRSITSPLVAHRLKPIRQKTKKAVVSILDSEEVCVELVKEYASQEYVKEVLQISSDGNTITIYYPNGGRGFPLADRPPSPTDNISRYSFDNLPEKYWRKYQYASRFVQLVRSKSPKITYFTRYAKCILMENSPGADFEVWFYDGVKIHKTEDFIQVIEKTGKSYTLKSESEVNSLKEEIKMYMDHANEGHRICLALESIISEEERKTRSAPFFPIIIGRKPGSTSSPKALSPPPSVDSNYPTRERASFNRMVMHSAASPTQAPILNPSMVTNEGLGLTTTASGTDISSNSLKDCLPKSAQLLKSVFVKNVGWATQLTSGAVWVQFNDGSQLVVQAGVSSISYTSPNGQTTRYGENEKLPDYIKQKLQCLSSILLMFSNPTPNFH

Myosin-14 = Myosin-14 (Homo sapiens, UniProt Q7Z406)
Sequence of Myosin-14 (Q7Z406 whole entry): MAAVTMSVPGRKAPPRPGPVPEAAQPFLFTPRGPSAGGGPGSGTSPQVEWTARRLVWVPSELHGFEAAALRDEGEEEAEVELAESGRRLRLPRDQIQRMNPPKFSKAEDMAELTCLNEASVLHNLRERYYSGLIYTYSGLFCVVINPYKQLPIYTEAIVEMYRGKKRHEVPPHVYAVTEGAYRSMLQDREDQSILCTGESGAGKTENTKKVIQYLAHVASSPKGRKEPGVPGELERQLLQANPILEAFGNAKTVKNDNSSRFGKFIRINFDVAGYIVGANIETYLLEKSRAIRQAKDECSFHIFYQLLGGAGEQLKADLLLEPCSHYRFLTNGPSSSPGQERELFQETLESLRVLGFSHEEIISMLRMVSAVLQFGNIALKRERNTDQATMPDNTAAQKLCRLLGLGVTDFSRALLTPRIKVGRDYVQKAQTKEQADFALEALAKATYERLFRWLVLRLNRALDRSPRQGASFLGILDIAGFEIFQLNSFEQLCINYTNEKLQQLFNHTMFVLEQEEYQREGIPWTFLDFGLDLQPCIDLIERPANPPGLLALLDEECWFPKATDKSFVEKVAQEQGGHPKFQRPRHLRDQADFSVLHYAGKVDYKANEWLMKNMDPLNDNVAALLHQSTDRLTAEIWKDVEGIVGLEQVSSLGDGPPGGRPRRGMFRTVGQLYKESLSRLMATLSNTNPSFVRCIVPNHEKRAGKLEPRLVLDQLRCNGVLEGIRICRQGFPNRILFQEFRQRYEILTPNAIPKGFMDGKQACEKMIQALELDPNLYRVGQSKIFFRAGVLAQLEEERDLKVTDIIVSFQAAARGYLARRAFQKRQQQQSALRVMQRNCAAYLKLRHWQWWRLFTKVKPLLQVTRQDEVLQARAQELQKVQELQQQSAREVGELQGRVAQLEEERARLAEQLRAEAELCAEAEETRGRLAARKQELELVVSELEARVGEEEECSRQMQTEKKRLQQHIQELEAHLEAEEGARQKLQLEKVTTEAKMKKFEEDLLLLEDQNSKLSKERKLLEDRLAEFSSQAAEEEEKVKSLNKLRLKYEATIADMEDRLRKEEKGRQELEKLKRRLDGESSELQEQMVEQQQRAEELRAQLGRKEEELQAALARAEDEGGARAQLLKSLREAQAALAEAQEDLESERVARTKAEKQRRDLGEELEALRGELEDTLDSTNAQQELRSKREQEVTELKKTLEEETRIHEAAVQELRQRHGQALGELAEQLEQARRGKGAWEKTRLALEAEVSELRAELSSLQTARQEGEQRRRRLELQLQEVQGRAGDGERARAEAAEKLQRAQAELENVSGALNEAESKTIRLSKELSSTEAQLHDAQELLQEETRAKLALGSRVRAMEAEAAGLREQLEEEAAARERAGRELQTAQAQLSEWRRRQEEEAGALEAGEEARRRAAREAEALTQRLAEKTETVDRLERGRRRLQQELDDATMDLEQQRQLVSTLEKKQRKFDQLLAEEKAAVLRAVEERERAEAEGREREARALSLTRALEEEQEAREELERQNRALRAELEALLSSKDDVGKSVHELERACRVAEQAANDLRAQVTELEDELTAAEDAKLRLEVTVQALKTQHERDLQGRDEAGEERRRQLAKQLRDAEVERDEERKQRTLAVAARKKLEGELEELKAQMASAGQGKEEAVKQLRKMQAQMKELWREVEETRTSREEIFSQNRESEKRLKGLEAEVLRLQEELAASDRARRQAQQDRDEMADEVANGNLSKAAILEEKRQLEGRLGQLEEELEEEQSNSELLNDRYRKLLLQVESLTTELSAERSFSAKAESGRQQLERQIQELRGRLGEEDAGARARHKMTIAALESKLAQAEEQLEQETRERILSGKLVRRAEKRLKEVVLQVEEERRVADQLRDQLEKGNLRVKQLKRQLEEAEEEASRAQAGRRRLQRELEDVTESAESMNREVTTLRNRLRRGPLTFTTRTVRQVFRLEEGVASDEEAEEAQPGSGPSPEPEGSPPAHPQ

TGF-beta receptor type-1 = biological target: T4, TGF-beta receptor type-1 (Homo sapiens, UniProt P36897)
T4 sequence (P36897 whole entry): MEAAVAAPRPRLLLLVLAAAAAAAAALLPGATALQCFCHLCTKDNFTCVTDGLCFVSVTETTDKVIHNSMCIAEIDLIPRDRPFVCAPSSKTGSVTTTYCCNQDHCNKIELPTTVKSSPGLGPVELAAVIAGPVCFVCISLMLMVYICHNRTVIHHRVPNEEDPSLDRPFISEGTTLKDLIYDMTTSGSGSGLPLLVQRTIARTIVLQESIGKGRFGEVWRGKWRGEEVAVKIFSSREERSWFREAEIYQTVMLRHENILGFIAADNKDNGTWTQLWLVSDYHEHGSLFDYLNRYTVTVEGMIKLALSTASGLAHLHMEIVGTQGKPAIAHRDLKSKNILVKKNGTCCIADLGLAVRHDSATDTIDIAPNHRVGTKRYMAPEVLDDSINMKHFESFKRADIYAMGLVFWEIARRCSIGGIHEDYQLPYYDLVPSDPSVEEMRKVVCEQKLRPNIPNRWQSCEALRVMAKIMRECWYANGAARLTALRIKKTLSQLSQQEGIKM

[6] = biological target: Mitogen-activated protein kinase 8 (Homo sapiens, UniProt P45983)
Sequence of Mitogen-activated protein kinase 8 (P45983 whole entry): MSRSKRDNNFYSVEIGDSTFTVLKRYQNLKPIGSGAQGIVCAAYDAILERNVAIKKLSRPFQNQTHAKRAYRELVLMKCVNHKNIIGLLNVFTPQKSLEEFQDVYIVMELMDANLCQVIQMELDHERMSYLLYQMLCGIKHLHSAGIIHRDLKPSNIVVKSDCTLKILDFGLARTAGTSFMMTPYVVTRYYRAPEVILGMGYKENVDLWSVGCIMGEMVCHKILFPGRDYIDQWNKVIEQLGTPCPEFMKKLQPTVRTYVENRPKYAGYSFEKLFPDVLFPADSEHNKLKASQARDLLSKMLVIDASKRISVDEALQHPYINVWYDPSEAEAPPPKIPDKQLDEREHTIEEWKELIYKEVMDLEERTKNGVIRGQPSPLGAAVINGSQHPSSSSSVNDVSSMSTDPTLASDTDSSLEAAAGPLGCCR

[7] = biological target: Calcium/calmodulin-dependent protein kinase kinase 2 (Homo sapiens, UniProt Q96RR4)
Sequence of Calcium/calmodulin-dependent protein kinase kinase 2 (Q96RR4 whole entry): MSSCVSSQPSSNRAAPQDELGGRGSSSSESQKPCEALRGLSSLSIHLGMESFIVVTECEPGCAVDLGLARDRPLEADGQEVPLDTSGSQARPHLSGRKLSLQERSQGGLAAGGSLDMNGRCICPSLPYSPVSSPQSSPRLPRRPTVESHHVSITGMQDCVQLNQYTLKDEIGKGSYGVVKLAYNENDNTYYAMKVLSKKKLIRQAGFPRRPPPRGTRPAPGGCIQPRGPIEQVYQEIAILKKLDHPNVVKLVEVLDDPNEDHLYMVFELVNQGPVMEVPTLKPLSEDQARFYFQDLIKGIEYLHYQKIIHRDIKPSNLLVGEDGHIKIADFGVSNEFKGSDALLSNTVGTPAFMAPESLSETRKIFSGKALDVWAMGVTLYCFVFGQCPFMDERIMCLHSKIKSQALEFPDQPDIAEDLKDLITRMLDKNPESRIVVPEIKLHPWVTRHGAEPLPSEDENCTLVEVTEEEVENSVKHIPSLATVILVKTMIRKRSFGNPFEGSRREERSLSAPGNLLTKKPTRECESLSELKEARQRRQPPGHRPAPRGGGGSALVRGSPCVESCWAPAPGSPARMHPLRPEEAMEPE

Actin-related protein 2 = Actin-related protein 2 (Homo sapiens, UniProt P61160)

| Kd [1] | Kd [2] | Kd [3] | Kd (Activin receptor type-1) | Kd [4] | Kd [5] | Kd (Myosin-14) | Kd (TGF-beta receptor type-1) | Kd [6] | Kd [7] | Kd (Actin-related protein 2) | SMILES |
| --- | --- | --- | --- | --- | --- | --- | --- | --- | --- | --- | --- |
| > 30 µM (inactive) | > 30 µM (inactive) | > 30 µM (inactive) | > 30 µM (inactive) | > 30 µM (inactive) | > 30 µM (inactive) | > 30 µM (inactive) | > 30 µM (inactive) | > 30 µM (inactive) | > 30 µM (inactive) | – | C[C@@H](Oc1cc(C(=O)Nc2ccc(C(=O)N3CCN(C)CC3)cc2)nnc1N)c1c(Cl)ccc(F)c1Cl |
| > 30 µM (inactive) | 0.097 µM (active) | > 30 µM (inactive) | > 30 µM (inactive) | > 30 µM (inactive) | 0.333 µM (active) | > 30 µM (inactive) | > 30 µM (inactive) | > 30 µM (inactive) | > 30 µM (inactive) | > 30 µM (inactive) | CCNC(=O)C#Cc1ccc2c(c1)NC(=O)/C2=C(\Nc1ccc(CN(C)C)cc1)c1ccccc1 |
| > 30 µM (inactive) | > 30 µM (inactive) | > 30 µM (inactive) | > 30 µM (inactive) | > 30 µM (inactive) | > 30 µM (inactive) | > 30 µM (inactive) | > 30 µM (inactive) | > 30 µM (inactive) | > 30 µM (inactive) | > 30 µM (inactive) | COCc1c(-c2ccc(NC(=O)Nc3cc(C(F)(F)F)ccc3F)c(F)c2)c2c(N)ncnn2c1CN1CCOCC1 |
| > 30 µM (inactive) | > 30 µM (inactive) | 0.01 µM (active) | > 30 µM (inactive) | > 30 µM (inactive) | > 30 µM (inactive) | – | > 30 µM (inactive) | > 30 µM (inactive) | > 30 µM (inactive) | > 30 µM (inactive) | C=CC(=O)Nc1cc2c(Nc3ccc(F)c(Cl)c3)ncnc2cc1C#CC(C)(C)N1CCN(C)CC1 [AV-412 FREE BASE] |
| 1.1 µM (active) | > 30 µM (inactive) | > 30 µM (inactive) | > 30 µM (inactive) | > 30 µM (inactive) | > 30 µM (inactive) | – | > 30 µM (inactive) | 0.356 µM (active) | > 30 µM (inactive) | – | CCS(=O)(=O)N1CCN(c2ccc(Nc3ncc(C(N)=O)c(NC4CC4)n3)cc2)CC1 [Cerdulatinib Hydrochloride] |
| > 30 µM (inactive) | > 30 µM (inactive) | > 30 µM (inactive) | > 30 µM (inactive) | > 30 µM (inactive) | > 30 µM (inactive) | – | > 30 µM (inactive) | > 30 µM (inactive) | > 30 µM (inactive) | > 30 µM (inactive) | Cc1nc2cc(-n3ncc(C(=O)c4cc5ccccc5[nH]4)c3N)ccc2[nH]1 [FGFR INHIBITOR DEBIO 1347] |
| > 30 µM (inactive) | > 30 µM (inactive) | > 30 µM (inactive) | > 30 µM (inactive) | > 30 µM (inactive) | > 30 µM (inactive) | > 30 µM (inactive) | – | > 30 µM (inactive) | > 30 µM (inactive) | > 30 µM (inactive) | Cc1cccc(-c2nn3c(c2-c2ccnc4ccc(C(N)=O)cc24)CCC3)n1 [GALUNISERTIB] |
| > 30 µM (inactive) | > 30 µM (inactive) | > 30 µM (inactive) | > 30 µM (inactive) | > 30 µM (inactive) | > 30 µM (inactive) | > 30 µM (inactive) | > 30 µM (inactive) | > 30 µM (inactive) | > 30 µM (inactive) | – | Cn1ncc(Cl)c1-c1cc(C(=O)N[C@H](CN)Cc2ccc(F)c(F)c2)oc1Cl [UPROSERTIB] |

Further lines, the molecule ahead of its results:

| SMILES | Kd [1] | Kd [2] | Kd [3] | Kd (Activin receptor type-1) | Kd [4] | Kd [5] | Kd (Myosin-14) | Kd (TGF-beta receptor type-1) | Kd [6] | Kd [7] | Kd (Actin-related protein 2) |
| --- | --- | --- | --- | --- | --- | --- | --- | --- | --- | --- | --- |
| CC(=O)c1cnc2ccc(-c3cc(Cl)c(O)c(Cl)c3)nc2c1N[C@H]1CC[C@H](CN(C)C)CC1 | > 30 µM (inactive) | 0.121 µM (active) | > 30 µM (inactive) | 0.222 µM (active) | > 30 µM (inactive) | – | > 30 µM (inactive) | 0.149 µM (active) | – | 0.126 µM (active) | > 30 µM (inactive) |
| C=CC(=O)N1CCC[C@H](n2c(=O)n(-c3ccc(Oc4ccccc4)cc3)c3c(N)ncnc32)C1 | > 30 µM (inactive) | 0.006 µM | 0.019 µM (active) | > 30 µM (inactive) | > 30 µM (inactive) | > 30 µM (inactive) | > 30 µM (inactive) | > 30 µM (inactive) | > 30 µM (inactive) | > 30 µM (inactive) | > 30 µM (inactive) |
| COc1ccc(S(=O)(=O)N(C(C)=O)c2ccccc2/C=C/c2cc[n+]([O-])cc2)cc1 [HMN-214] | > 30 µM (inactive) | > 30 µM (inactive) | > 30 µM (inactive) | > 30 µM (inactive) | > 30 µM (inactive) | > 30 µM (inactive) | – | > 30 µM (inactive) | > 30 µM (inactive) | > 30 µM (inactive) | > 30 µM (inactive) |
| CCOc1cc2ncc(C#N)c(Nc3ccc(F)c(Cl)c3)c2cc1NC(=O)/C=C/CN(C)C [PELITINIB] | > 30 µM (inactive) | > 30 µM (inactive) | – | > 30 µM (inactive) | > 30 µM (inactive) | > 30 µM (inactive) | > 30 µM (inactive) | > 30 µM (inactive) | > 30 µM (inactive) | 1.39 µM (active) | > 30 µM (inactive) |
| CN1CCN(CCOc2cc(OC3CCOCC3)c3c(Nc4c(Cl)ccc5c4OCO5)ncnc3c2)CC1 [SARACATINIB] | > 30 µM (inactive) | 0.113 µM (active) | – | 0.004 µM (active) | > 30 µM (inactive) | > 30 µM (inactive) | > 30 µM (inactive) | 0.197 µM (active) | > 30 µM (inactive) | > 30 µM (inactive) | > 30 µM (inactive) |
| CC(C)c1cc(CNc2nc(Nc3cc(C4CC4)[nH]n3)cc(N3CCN(C)CC3)n2)on1 [XL-228] | > 30 µM (inactive) | 1.33 µM (active) | > 30 µM (inactive) | 0.005 µM (active) | > 30 µM (inactive) | 0.003 µM (active) | > 30 µM (inactive) | – | > 30 µM (inactive) | 2.34 µM (active) | > 30 µM (inactive) |
